# Source: ChEMBL document CHEMBL3507680, “University of Dundee, Gates Library screen for HepG2 cell viability”
# Experiment: Human HepG2 cell viability assay in 384 well format
# Format: toxicity, cell-based
# Design: dose 125 nL, time 70.5 hour; concentration not given beside the values
# Conditions: HepG2 cells, read-out: Inhibition
row,SMILES,cytotoxicity at 70.5 h [%]
1,Cc1ccccc1CNc1ccc(S(N)(=O)=O)c(C(F)(F)F)c1,4.82
2,COc1cccc(OCc2cc(C(=O)N3CC(O)C3)n[nH]2)c1,-2.2
3,O=S(=O)(NCC1COCc2c(-c3ccncc3)nnn2C1)C1CC1 (centres undefined),-3.99
4,Cn1ccc(CN2CCC(c3ccccc3)CC2)cc1=O,-8.13
5,COCC1CCCN(CCCc2cccc(OC)c2)C1 (centres undefined),37.4
6,Cc1n[nH]c(SCC(=O)N[C@@H](C)C(N)=O)n1,0.227
7,COCc1n[nH]c2c1CN(C(=O)c1ccncc1)C2,-10.2
8,Cc1nc(CCN)cc(N2CCOc3ccc(Cl)cc3C2)n1,-5.61
9,CC(C)CN1CCC2(C=C(C(=O)N(C)C)c3ccccc32)CC1,-2.19
10,Cc1nnc([C@@]23CCO[C@@H]2CCN(S(=O)(=O)c2cccnc2)C3)o1,-5.15
11,COc1cccc(S(=O)(=O)CCN2CCCC2c2ccc[nH]2)c1 (centres undefined),-16.8
12,Cc1noc2ncnc(N(C)Cc3ccco3)c12,-16.7
13,Cc1ccc(C(=O)CN(C2=NCCCCC2)c2ccccc2)cc1,-23.6
14,Cc1ccc(NC2CCN(C(=O)COc3cccc(F)c3)CC2)nn1,43.9
15,O=C(Nc1cc(-c2ccncc2)no1)C1CCCCC1,-6.08
16,COc1cc(CNCC2CNc3ccnn3C2)ccn1 (centres undefined),-3.41
17,Cc1ccc(-c2ccc(CC3NCCN(C)C3=O)cc2)cc1 (centres undefined),20.9
18,CCNC(=O)COc1ccc(C(=O)NC(C)CCc2ccco2)cc1 (centres undefined),2.41
19,CN(Cc1cn2ccccc2n1)C1CCCN(c2cccnn2)C1 (centres undefined),12.5
20,CC(C)C(NC(=O)c1ccccc1F)C(=O)Nc1cnn(C)c1 (centres undefined),-13.2
21,Cc1nc[nH]c1CN(C)CC1CCCN(CCc2ccc(Cl)cc2)C1 (centres undefined),20.5
22,CS(=O)(=O)NCc1nnc2n1CCN(Cc1ccc(F)cc1)C2,-3.88
23,COc1ccc(CNC(C)c2ccc3[nH]c(=O)[nH]c3c2)cc1 (centres undefined),-2.85

row,SMILES,cytotoxicity at 70.5 h [%]
1,COc1c(CNC2CCOc3ccccc32)c(C(C)C)nn1C (centres undefined),-7.12
2,O=C(C1CCCC1)N1CCO[C@@H]2CNC[C@@H]21,12.2
3,Cc1cc(CN2CC[C@H]3C(=O)N(c4ccsc4)CCO[C@H]3C2)no1,-9.15
4,CCCc1nc(CN2CCc3c(ncn3C3CC3)C2)cs1,-5.23
5,CC(C)Nc1nc(N2CCCC2)nc2c1CN(c1ncc(F)cn1)CC2,-7.8
6,CCCN(Cc1ccccc1C)C(CC)CO (centres undefined),-7.79
7,COc1cccc(C(=O)Oc2cc(=O)n3cccc(C)c3n2)c1,-24.8
8,NC[C@H]1CC[C@H](C(NC(=O)c2ccccn2)c2ccccn2)CC1 (some centres undefined),-4.69
9,Cc1cc(Cc2cccc(C(F)(F)F)c2)cc(C2CCCNC2)n1 (centres undefined),2.41
10,CN1CCN(S(=O)(=O)c2ccc3c(c2)CN(C(=O)C(C)(C)C)CC3)CC1,-2.56
11,CC(=O)NC1CCN(c2cc(-c3ccccc3)nc3c(C)c(C)nn23)C1 (centres undefined),-2.22
12,Cc1cccc(CN2C[C@H]3CC[C@@H]2CN(Cc2[nH]cnc2C)C3)n1,-5.25
13,Cc1ncn(CCNC(=O)Nc2ccccc2)c(=O)c1C,21.4
14,O=C(NC1CC1)c1ccc2ccc(N3CCN(CC4CC4)CC3)n2c1,6.77
15,CN(Cc1cc2c(cc1OC(F)F)OCO2)Cc1nccn1C,-3.97
16,Cc1nc(CN2CCCC(NCc3sccc3C)C2)no1 (centres undefined),-2.7
17,N#CC(NC(=O)CCC(=O)NC1CCCC1)c1ccc(F)cc1F (centres undefined),-11.2
18,CN(Cc1ccccc1F)C(=O)c1ccoc1,-4.97
19,O=C(c1ccccc1-c1nc[nH]n1)N1CCOC(C(F)(F)F)C1 (centres undefined),-2.49
20,CCOCCS(=O)(=O)c1nnc(NCCOC)s1,23.1
21,Cn1c(CCNc2nccnc2C#N)nc2cc(Cl)ccc21,-0.473
22,OCCN1CCN(CC(O)c2ccc(OC(F)(F)F)cc2)CC1 (centres undefined),-2.1
23,CCc1ncc(C(=O)N2CCN(C(=O)COc3ccccc3)CC2)cn1,-3.1

row,SMILES,cytotoxicity at 70.5 h [%]
1,CN(C)CC1CN(c2cnc3ccccc3n2)CCO1 (centres undefined),11.3
2,O=C(O)[C@@H]1CN(CC2CCC2)C[C@H]1c1ccc(F)cc1,-7.16
3,CCCSc1ccccc1NC(=O)N1CCN(C(=O)c2ccc[nH]2)CC1,-1.4
4,Cc1ccc(N2CCN(C(=O)C3CN(C)C(=O)N3)CC2=O)cc1 (centres undefined),3.04
5,O=C1NCC2(CCCN(Cc3ccccc3OCCO)C2)O1 (centres undefined),-8.84
6,CC(C)NC(=O)N1C[C@H](OCc2cccnc2)[C@H]2COC[C@H]21,0.936
7,Cc1cn[nH]c1C1CCCCN1C(=O)CCc1ccc(F)cc1 (centres undefined),-6.22
8,O=C(C1CCOCC1)N1CCC2(CCNCC2)C1,-11.8
9,Cn1cccc1C(=O)N1CCCCC1c1ccn2ccnc2n1 (centres undefined),-1.33
10,CCN1CCN(C(=O)C(C)n2cc(Br)cn2)CC1 (centres undefined),-1.55
11,Cc1ccc(-c2nnc(C(C)N3CCc4cncnc4C3)o2)cc1 (centres undefined),1.38
12,CCc1cnc(N2CCc3ncnc(N4CCN(C)CC4)c3CC2)nc1,-3.37
13,CC(C)c1cc(O)nc(C2CCCN2C(=O)C(C)(C)C)n1 (centres undefined),26.4
14,CC(=O)Nc1c(C)noc1/C=C\c1ccc(C)c(S(=O)(=O)NC2CC2)c1,-6.84
15,CC1=N[C@@]2(CC[C@@H]3CN(S(=O)(=O)N(C)C)C[C@@H]32)C(=O)N1CC(C)C,-7.17
16,Cc1cccc(CN2CCc3ncnc(Oc4cccnc4)c3CC2)n1,27.9
17,CC(C)N(Cc1ccccn1)C(=O)CCC(=O)c1ccc(F)cc1F,-14.3
18,Cc1ccc(-n2nc(C)c3c(C)cc(OCC(=O)NC(C)C)nc32)cc1,-1.77
19,COCc1noc(CN2CC(Cc3ccccc3)CC2=O)n1 (centres undefined),-20.6
20,COc1ccc(C2=C(C)C(N3CCc4ccccc4C3)=NS2(=O)=O)cc1,48.7
21,Cc1ccc(C(=O)N2CCC3(CC2)COC(COc2ccccn2)C3)o1 (centres undefined),-4.24
22,Cc1noc(C)c1CCC(=O)N1CCN(Cc2cscn2)CC1,-2.32
23,O=C(NCC1CC1)C1=NOC2(CCN(Cc3ccc4c(c3)OCO4)C2)C1 (centres undefined),-5.94

row,SMILES,cytotoxicity at 70.5 h [%]
1,CCN1CCCC(CN2CCn3nc(CNC(=O)N(C)C)cc3C2)C1 (centres undefined),-8.51
2,Cc1noc(C)c1C(=O)NCC(C)N1CCc2ccccc21 (centres undefined),9.63
3,C[C@@H]1CN(CCCOc2ccc(F)cc2)CC[C@@]1(O)C1CCOCC1,2.59
4,Cn1cc(C(=O)CC2CCCN2C(=O)c2c[nH]c3ccccc23)cn1 (centres undefined),-13.9
5,CC(=O)c1ccc(NC(=O)N[C@H](C(=O)O)C(C)C)cc1,-6.92
6,O=C1NCCN(C(=O)CN2CCOC2=O)C1c1cccc(F)c1 (centres undefined),-18.2
7,CC(Cn1cccn1)NC(=O)Nc1cccnc1 (centres undefined),-8.71
8,O=C(c1cnccn1)N1CCOC2(CCN(Cc3ccsc3)CC2)C1,4.24
9,CNS(=O)(=O)c1ccc(CNC(=O)N(CC(C)C)C(C)C)cc1,-96.5
10,CSCc1ccc(N(C)CC2CCCN(C(C)C)C2)nc1 (centres undefined),-2.8
11,C[C@@H]1CN(c2ccc(Cl)cn2)C[C@@]1(O)C1CC1,-3.66
12,O=C1C(NCc2cccc(O)c2)CCN1Cc1ccccc1 (centres undefined),-0.773
13,CN(CCn1ccnc1-c1ccccn1)S(C)(=O)=O,11.9
14,Fc1ccc(CN2CCO[C@H]3[C@H](Oc4ccccn4)CC[C@@H]32)cc1,7.26
15,COCc1ccccc1C(=O)N1CCn2c(nnc2C(C)C)C1,-3.21
16,CN(CC(N)=O)CC(=O)N(C1=CCCCC1)C1CC1,-10.7
17,CC(C)c1noc(CCCC(=O)NCCOc2ccccc2)n1,-8.16
18,Cc1cnn(CC2CN(CCc3ccccn3)CCO2)c1 (centres undefined),-7.7
19,CCCN(CCC)C(=O)CN(C)C1CCc2ccccc21 (centres undefined),-7.56
20,CC1CCN(C(=O)c2cn(-c3ccc(C(F)(F)F)cn3)nn2)CC1,-0.268
21,CC(C)c1nc2c(n1C)CCN(CCS(=O)(=O)c1ccccc1)C2,-12.4
22,COc1ccccc1N1CCN(C(=O)CCn2ccc(C)n2)CC1(C)C,-5.62
23,CCc1cnc(CN(C)C(=O)NC2CCN(c3ccccc3)C2)s1 (centres undefined),-0.551

row,SMILES,cytotoxicity at 70.5 h [%]
1,CCN(CC)Cc1nc2c(o1)CN(C(=O)c1ccc3ncccc3c1)C2,-4.56
2,CCC(C#N)NC(=O)CCNC(=O)C(C)(C)C (centres undefined),0.625
3,CCOc1c(Cl)cc(/C=C/c2ncc(C(=O)O)s2)cc1OC,-18.4
4,CN1CCCC1c1ccnc(-c2ccccc2)n1 (centres undefined),-2.81
5,CCC(=O)N1CCCC(C(=O)NCc2noc(Cc3ccccc3)n2)C1 (centres undefined),-12.1
6,COc1c(CNCCNC(=O)Cc2ccc(F)cc2)c(C)nn1C,34.8
7,COc1ccc(-c2cc[nH]n2)cc1CNC1CCCC1,-7.14
8,CC(OCC(F)(F)F)C(=O)N1CCOCC1 (centres undefined),-99.6
9,Cc1ccc(CN2CC[C@H]3C[C@@H](c4nc(C5CC5)cs4)O[C@@H]3C2)o1,-7.46
10,CNc1ccnc(N2CC[C@@](O)(C3CCOCC3)[C@H](C)C2)n1,-7.76
11,CCCN1CCCn2nc(CNC(=O)C3CCOC3)cc2C1 (centres undefined),-2.94
12,O=C(NCCCn1ccnc1)c1cccnc1OCC(F)(F)F,4.36
13,Cc1nnc2n1CCN(Cc1csc(-c3ccc(F)cc3)n1)C2,-12.1
14,CC1(Cc2ccccn2)NCCc2[nH]cnc21 (centres undefined),-1.72
15,O=C(CC1CC1)NCc1cc(=O)n2c(n1)CN(Cc1ccoc1)CCC2,-5.33
16,CCN(C(=O)CN1CCC(c2n[nH]c(C3CC3)n2)CC1)C1CC1,-5.09
17,CC(C)SCc1cccc(NC(=O)NC(C)c2nc[nH]n2)c1 (centres undefined),-7.97
18,Cc1cc(C)c(C(=O)Nc2cccc(CN3CCC(CO)CC3)c2)o1,4.26
19,COCC1CN(S(=O)(=O)C2CC2)Cc2ncn(CC3CC3)c21 (centres undefined),-1.47
20,O=C(CCc1cccc(F)c1F)N1CCCC(n2cncn2)C1 (centres undefined),-6.22
21,COc1ccccc1NC(=O)c1cc2c([nH]c1=O)CCCC2=O,-11.1
22,CC(C)COCCNC1CCN(c2ccccn2)CC1,0.205
